Active and inactive are the calls of the source. The calls are words filed in the database; no cut-off is given here.
How the values were obtained:
MCF7 [1] = assay: Antitumor activity against human MCF7 cells xenografted in nu/nu mouse assessed as induction of apoptosis at 20 mg/kg, ip measured once every other day for 21 days by TUNEL assay; assay type: functional, organism-based; conditions: time 21.0 day
[2] = Metabolic stability in human liver microsomes assessed as compound remaining at 100 uM incubated for 60 mins in presence of NADPH by LC-MS/MS analysis; assay type: ADME, Microsome; conditions: read-out: Stability
[3] = AUClast in ICR mouse at 2 mg/kg, iv measured upto 24 hrs by LC-M/MS analysis; assay type: ADME, organism-based; parameters: time < 24 hrs, dose 2 mg/kg, route iv; conditions: in vivo
[4] = Observed mean […] time infinity in ICR mouse at 2 mg/kg, iv measured upto 24 hrs by LC-M/MS analysis; assay type: ADME, organism-based; conditions: in vivo
[5] = Observed AUC infinity in ICR mouse at 2 mg/kg, iv measured upto 24 hrs by LC-M/MS analysis; assay type: ADME, organism-based; parameters: time < 24 hrs, dose 2 mg/kg, route iv; conditions: in vivo
[6] = target: Protein cereblon/Serine/threonine-protein kinase PLK4 (Homo sapiens, UniProt O00444+Q96SW2); assay: Protac activity at CRBN/PLK4 in human MCF7 cells at 1 uM by Western blot analysis; assay type: cell-based
[7] = Cmax in ICR mouse at 20 mg/kg, ip measured upto 24 hrs by LC-M/MS analysis; assay type: ADME, organism-based; parameters: dose 20 mg/kg, time < 24 hrs, route ip; conditions: in vivo
MCF7 [8] = assay: Antitumor activity against human MCF7 cells xenografted in nu/nu mouse assessed as tumor growth inhibition at 20 mg/kg, ip administered once every other day for 21 days; assay type: functional; conditions: MCF7, 504 h, time 21 day, read-out: TGI
[9] = Metabolic stability in mouse liver microsomes assessed as compound remaining at 100 uM incubated for 60 mins by LC-MS/MS analysis; assay type: ADME, Microsome; conditions: read-out: Stability
[10] = Half life in ICR mouse at 20 mg/kg, ip measured upto 24 hrs by LC-M/MS analysis; assay type: ADME, organism-based; conditions: in vivo
CYP2D6 = assay: Inhibition of CYP2D6 in human liver microsomes at 10 uM using quinidine as substrate preincubated for 10 mins followed by NADPH regenerating system addition and measured after 15 mins by LC-MS/MS analysis relative to control; assay type: ADME, Microsome; conditions: time 25 min
[11] = Toxicity in nu/nu mouse xenografted with human MCF7 cells assessed as effect on spleen at 20 mg/kg, ip administered once every other day for 21 days by HE staining based analysis; assay type: organism-based; conditions: in vivo, 504 h, time 21 day
[12] = Metabolic stability in mouse liver microsomes assessed as half life at 100 uM incubated for 60 mins in presence of NADPH by LC-MS/MS analysis; assay type: ADME, Microsome
[13] = Apparent permeability across basolateral to apical side in human Caco-2 cells at 2 uM incubated for 2 hrs by LC-MS/MS analysis; assay type: ADME, cell-based
[14] = Metabolic stability in rat liver microsomes assessed as intrinsic clearance at 100 uM incubated for 60 mins in presence of NADPH by LC-MS/MS analysis; assay type: ADME, Microsome; conditions: read-out: CLH
MCF7 [15] = assay: Antitumor activity against human MCF7 cells xenografted in nu/nu mouse assessed as reduction in Ki-67 at 20 mg/kg,ip administered once every other day for 21 days by immunohistochemical analysis; assay type: functional, organism-based; conditions: time 21.0 day
[16] = Stability in human plasma assessed as compound remaining at 100 uM after 30 mins by LC-MS/MS analysis (reference value: 100%); assay type: ADME, cell-free; conditions: read-out: Stability
[17] = Metabolic stability in human liver microsomes assessed as intrinsic clearance at 100 uM incubated for 60 mins in presence of NADPH by LC-MS/MS analysis; assay type: ADME, Microsome; conditions: read-out: CLH

Chain of Protein cereblon/Serine/threonine-protein kinase PLK4 (O00444 whole entry, looked up): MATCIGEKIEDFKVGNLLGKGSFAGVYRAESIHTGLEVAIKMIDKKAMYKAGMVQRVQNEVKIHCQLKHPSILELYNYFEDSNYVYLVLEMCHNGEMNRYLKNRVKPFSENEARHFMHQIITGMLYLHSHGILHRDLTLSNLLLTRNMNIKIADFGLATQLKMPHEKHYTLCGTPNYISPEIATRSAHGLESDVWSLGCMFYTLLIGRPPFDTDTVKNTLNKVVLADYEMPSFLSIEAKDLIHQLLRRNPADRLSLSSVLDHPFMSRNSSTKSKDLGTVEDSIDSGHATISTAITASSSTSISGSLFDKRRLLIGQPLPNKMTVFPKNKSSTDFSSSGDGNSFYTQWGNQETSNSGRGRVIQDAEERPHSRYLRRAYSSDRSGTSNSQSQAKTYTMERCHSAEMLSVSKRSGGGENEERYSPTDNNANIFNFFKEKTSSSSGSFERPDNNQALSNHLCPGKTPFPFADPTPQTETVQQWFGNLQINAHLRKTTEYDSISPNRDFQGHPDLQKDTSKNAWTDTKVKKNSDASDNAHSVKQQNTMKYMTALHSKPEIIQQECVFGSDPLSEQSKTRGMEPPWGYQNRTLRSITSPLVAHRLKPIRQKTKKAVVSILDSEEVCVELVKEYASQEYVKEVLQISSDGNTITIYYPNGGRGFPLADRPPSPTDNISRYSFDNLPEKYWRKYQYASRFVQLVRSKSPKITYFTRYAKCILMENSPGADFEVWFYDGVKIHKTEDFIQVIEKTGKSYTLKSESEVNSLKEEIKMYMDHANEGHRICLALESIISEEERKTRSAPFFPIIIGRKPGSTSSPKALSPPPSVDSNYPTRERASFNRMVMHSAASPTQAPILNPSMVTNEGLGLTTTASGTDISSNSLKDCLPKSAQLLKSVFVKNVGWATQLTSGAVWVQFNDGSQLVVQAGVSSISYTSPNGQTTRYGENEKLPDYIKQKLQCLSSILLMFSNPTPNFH
Chain of Protein cereblon/Serine/threonine-protein kinase PLK4 (Q96SW2 whole entry, looked up): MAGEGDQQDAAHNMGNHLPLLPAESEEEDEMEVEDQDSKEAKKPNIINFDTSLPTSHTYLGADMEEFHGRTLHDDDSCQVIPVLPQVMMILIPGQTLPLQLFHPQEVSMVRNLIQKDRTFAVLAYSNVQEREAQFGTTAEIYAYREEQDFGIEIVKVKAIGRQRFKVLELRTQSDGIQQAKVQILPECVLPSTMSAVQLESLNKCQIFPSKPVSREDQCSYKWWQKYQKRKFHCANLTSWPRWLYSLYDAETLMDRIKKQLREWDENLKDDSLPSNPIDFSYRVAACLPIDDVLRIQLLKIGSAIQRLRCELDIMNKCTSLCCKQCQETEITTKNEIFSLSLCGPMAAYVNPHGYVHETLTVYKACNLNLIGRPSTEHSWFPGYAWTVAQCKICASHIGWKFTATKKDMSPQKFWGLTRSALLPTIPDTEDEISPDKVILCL

remaining at 1 h, 100 µM [2]: 51.7%
AUC(0-t) at 24 h [3]: 0.941 µg·h/mL
Time [4]: 2.29 h
AUC(0-inf) [5]: 0.956 µg·h/mL
Activity [6]: Active
Cmax [7]: 4.57 µg/mL
remaining at 1 h, 100 µM [9]: 80.7%
half-life [10]: 4.66 h
inhibition at 0.25 h, 10 µM (CYP2D6): 5.6%
half-life at 100 µM [12]: 1.35 h
Papp B→A at 2 h, 2 µM [13]: 9.7 nm/s
microsomal CLint at 100 µM [14]: 20.9 µL/min/mg
remaining at 0.5 h, 100 µM [16]: 96.6%
microsomal CLint at 100 µM [17]: 21.7 µL/min/mg
SMILES: Cc1cc(Nc2nc(NCc3ccc(F)cc3F)nc3c2cnn3C2CCN(C(=O)C3CCN(c4ccc5c(c4)C(=O)N(C4CCC(=O)NC4=O)C5=O)CC3)CC2)n[nH]1 (stereo not drawn)
inhibition (MCF7 [1]): Active
inhibition in vivo at 20 mg/kg (MCF7 [8]): 73.7%
Activity [11]: Non-Toxic
inhibition (MCF7 [15]): Active

From ChEMBL document CHEMBL5338818, “Discovery of the First Potent, Selective, and In Vivo Efficacious Polo-like Kinase 4 Proteolysis Targeting Chimera Degrader for the Treatment of TRIM37-Amplified Breast Cancer” (J Med Chem, 2023)
